{"source": "paper PMC3234597", "about": "“Two Panels of Steroid Receptor Luciferase Reporter Cell Lines for Compound Profiling” (Combinatorial Chemistry & High Throughput Screening, 2011)", "type_in_all_cases": "cell-based", "key": {"[1]": {"target": "T1, human ERβ (full-length) (Homo sapiens, UniProt Q92731)", "T1 construct": "expression vectors encoding full-length steroid receptors: pcDNA3-hERα and pcDNA3-ERβ; expressed in transfected cells; host or cells: U2OS", "T1 sequence (Q92731 whole entry)": "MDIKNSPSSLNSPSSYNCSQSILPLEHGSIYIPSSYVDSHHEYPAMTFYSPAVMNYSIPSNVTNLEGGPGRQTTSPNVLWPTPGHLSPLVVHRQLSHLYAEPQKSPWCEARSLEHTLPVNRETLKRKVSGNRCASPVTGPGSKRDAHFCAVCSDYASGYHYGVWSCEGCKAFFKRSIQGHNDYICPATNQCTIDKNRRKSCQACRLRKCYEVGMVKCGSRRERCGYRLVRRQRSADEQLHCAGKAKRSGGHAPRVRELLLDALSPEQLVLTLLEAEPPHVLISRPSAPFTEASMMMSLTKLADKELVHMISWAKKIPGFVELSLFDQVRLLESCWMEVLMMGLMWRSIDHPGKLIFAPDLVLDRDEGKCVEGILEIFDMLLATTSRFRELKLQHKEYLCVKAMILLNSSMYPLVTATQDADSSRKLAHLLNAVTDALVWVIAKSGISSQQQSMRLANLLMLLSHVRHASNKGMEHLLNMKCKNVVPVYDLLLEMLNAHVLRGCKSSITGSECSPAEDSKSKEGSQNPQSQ", "test": "U2OS-ERβ/3xERE luciferase reporter cell line (full-length receptor)", "details": "read-out: Log EC50 (converted)"}, "[2]": {"target": "T2, ERβ-LBD fused to Gal4-DBD (Homo sapiens, UniProt Q92731)", "T2 construct": "region comprising ERβ-LBD and a piece of the hinge region; expressed in transfected cells; host or cells: U2OS", "T2 sequence (Q92731 264-498 limits assumed)": "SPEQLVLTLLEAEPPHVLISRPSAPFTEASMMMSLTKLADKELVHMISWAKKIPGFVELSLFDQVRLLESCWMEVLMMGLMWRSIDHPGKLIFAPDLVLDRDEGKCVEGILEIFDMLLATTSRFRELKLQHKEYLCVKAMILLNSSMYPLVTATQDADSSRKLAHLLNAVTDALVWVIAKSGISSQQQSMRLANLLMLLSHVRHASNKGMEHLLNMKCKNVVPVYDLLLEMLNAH", "test": "U2OS-ERβ-LBD/9xGal4UAS luciferase reporter cell line", "details": "read-out: Log EC50 (converted)"}, "[3]": {"target": "T3, human AR (full-length) (Homo sapiens, UniProt P10275)", "T3 construct": "expression vectors encoding full-length steroid receptors: pcDNA3-hAR and pcDNA3-hGR; host or cells: U2OS", "T3 sequence (P10275 1-920)": "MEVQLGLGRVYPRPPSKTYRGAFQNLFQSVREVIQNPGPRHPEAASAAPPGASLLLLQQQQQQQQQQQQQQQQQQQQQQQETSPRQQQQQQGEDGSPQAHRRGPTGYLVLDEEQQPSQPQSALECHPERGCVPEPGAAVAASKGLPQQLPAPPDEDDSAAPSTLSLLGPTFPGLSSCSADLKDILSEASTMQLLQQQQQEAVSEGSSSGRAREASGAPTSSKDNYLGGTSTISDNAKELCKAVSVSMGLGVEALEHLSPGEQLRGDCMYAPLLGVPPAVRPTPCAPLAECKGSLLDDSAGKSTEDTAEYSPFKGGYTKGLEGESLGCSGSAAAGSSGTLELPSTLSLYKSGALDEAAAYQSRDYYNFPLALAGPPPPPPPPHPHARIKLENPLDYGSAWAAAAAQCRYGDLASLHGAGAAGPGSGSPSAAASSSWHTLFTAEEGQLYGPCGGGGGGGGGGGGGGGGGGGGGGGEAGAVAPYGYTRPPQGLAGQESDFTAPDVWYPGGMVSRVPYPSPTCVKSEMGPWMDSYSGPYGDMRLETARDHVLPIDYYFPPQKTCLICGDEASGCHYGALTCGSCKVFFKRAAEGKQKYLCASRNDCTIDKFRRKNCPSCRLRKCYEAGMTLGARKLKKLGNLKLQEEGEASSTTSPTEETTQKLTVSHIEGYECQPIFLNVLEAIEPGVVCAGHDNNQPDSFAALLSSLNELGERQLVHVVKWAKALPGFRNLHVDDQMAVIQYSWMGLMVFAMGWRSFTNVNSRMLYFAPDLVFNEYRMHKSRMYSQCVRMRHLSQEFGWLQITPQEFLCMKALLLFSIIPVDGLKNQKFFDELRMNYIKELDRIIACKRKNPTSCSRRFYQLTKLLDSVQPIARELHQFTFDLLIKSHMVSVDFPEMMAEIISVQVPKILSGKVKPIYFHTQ", "test": "U2OS-AR/3xGRE luciferase reporter cell line (full-length receptor)"}, "[4]": {"target": "T3, human AR (full-length)", "test": "U2OS-AR/MMTV luciferase reporter cell line (full-length receptor)"}, "[5]": {"target": "T4, AR-LBD fused to Gal4-DBD (co-expressed with full-length AR) (Homo sapiens, UniProt P10275)", "T4 construct": "the following primers were used for the amplification of the LBD region; expressed in transfected cells; host or cells: U2OS", "T4 sequence (P10275 669-900 limits assumed)": "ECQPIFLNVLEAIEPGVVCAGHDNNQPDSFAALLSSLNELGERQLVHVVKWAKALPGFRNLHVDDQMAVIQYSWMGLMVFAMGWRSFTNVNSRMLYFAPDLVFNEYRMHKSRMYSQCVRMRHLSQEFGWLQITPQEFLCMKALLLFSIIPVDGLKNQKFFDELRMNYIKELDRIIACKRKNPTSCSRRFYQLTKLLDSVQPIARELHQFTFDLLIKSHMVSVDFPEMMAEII", "test": "U2OS-AR-LBD/9xGal4UAS luciferase reporter cell line"}, "[6]": {"target": "T5, human MR (full-length) (Homo sapiens, UniProt P08235)", "T5 construct": "expression vectors encoding full-length steroid receptors: pcDNA3-hAR, pcDNA3-hGR and pcDNA3-hMR; expressed in transfected cells; host or cells: U2OS", "T5 sequence (P08235 1-984)": "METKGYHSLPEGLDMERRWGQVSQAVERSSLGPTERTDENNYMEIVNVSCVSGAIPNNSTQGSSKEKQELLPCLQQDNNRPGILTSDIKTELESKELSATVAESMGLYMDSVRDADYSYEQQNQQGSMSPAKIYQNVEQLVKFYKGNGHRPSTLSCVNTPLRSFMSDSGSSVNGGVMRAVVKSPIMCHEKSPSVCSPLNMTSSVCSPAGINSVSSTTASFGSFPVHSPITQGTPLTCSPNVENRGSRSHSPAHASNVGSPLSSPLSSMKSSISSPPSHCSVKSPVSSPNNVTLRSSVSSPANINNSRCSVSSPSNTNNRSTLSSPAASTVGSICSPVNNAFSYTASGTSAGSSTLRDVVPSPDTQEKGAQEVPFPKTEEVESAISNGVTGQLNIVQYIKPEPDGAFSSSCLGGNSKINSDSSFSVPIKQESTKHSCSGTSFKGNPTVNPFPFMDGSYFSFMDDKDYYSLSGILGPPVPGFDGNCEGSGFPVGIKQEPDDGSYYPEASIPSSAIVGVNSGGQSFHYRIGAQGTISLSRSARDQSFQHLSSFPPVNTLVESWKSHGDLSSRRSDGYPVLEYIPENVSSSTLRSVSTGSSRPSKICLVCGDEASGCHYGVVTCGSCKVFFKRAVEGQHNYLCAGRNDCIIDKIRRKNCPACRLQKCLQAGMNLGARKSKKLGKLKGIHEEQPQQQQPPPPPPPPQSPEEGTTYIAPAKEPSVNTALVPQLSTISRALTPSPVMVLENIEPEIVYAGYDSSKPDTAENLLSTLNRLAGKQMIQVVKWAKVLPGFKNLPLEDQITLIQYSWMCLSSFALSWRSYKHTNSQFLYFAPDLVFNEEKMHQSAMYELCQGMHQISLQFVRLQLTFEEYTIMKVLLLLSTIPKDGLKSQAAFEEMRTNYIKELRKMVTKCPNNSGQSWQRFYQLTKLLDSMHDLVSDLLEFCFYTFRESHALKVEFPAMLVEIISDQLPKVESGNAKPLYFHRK", "test": "U2OS-MR/MMTV luciferase reporter cell line (full-length receptor)", "details": "read-out: Log EC50 (converted)"}, "[7]": {"target": "T6, MR-LBD fused to Gal4-DBD (Homo sapiens, UniProt P08235)", "T6 construct": "MR-LBD was cloned by RT-PCR from total RNA isolated from HEK293 cells; expressed in transfected cells; host or cells: U2OS", "T6 sequence (P08235 726-964 limits assumed)": "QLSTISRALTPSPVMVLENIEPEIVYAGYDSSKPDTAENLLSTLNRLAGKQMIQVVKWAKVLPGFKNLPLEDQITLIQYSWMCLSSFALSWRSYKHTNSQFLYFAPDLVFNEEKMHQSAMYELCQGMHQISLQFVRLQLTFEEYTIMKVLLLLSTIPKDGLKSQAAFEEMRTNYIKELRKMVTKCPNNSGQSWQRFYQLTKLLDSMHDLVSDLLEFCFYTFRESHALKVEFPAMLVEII", "test": "U2OS-MR-LBD/9xGal4UAS luciferase reporter cell line", "details": "read-out: Log EC50 (converted)"}, "[8]": {"target": "T7, PR-LBD fused to Gal4-DBD (Homo sapiens, UniProt P06401)", "T7 construct": "PR-LBD region was PCR amplified using the following primer combination; host or cells: U2OS", "T7 sequence (P06401 679-913 limits assumed)": "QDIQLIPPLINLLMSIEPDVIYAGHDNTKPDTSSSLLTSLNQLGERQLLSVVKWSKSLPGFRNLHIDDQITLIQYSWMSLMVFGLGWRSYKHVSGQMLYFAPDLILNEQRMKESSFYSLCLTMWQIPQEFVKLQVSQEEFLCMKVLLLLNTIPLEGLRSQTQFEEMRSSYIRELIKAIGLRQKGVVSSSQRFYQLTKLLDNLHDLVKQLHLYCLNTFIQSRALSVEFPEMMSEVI", "test": "U2OS-PR-LBD/9xGal4UAS luciferase reporter cell line"}}, "data": [{"compound": "C[C@]12CCC(=O)C=C1CC[C@@H]1[C@@H]2[C@@H](O)C[C@@]2(C)[C@H]1CC[C@]2(O)C(=O)CO", "note": "[Cortisol, cortisol]", "values": [{"measurement": "EC50", "setting": "[1]", "result": "> 10", "unit": "µM"}, {"measurement": "EC50", "setting": "[2]", "result": "> 10", "unit": "µM"}, {"measurement": "EC50", "setting": "[3]", "result": "> 10", "unit": "µM"}, {"measurement": "EC50", "setting": "[4]", "result": "> 10", "unit": "µM"}, {"measurement": "IC50", "setting": "[4]", "result": "> 10", "unit": "µM"}, {"measurement": "EC50", "setting": "[5]", "result": "> 10", "unit": "µM"}, {"measurement": "IC50", "setting": "[5]", "result": "> 10", "unit": "µM"}, {"measurement": "EC50", "setting": "[6]", "result": 0.00631, "unit": "µM"}, {"measurement": "EC50", "setting": "[7]", "result": 0.0112, "unit": "µM"}, {"measurement": "IC50", "setting": "[8]; antagonist mode, PR-LBD/9xGal4UAS, log10 of molar IC50, mean ± SEM, read-out: Log IC50 (converted)", "result": "> 10", "unit": "µM"}, {"measurement": "EC50", "setting": "[8]; read-out: Log EC50 (converted)", "result": 6.17, "unit": "µM"}]}]}
